Where two headings read alike, the source gives them in different places.
What was measured:
[1] = Multiple-dose tolerability and steady state exposure, mice; assay type: in vivo, CD-1 mice
Description: There were no adverse clinical signs observed in the mice so the multiple doses of the prodrug were well-tolerated.
Separately, two mouse studies with multiple dosing were conducted. First, 9 naïve CD-1 mice were administered Compound 1 (AT-281) in 100 mM citrate buffer, pH 4.5 by oral gavage at 500 mg/kg for the first dose and, 4 h later, 250 mg/kg for the second dose. Blood samples were collected, 3 animals per time point, at 4 (before the second dosing), 8 and 16 h post the first dose, and PBMCs isolated. Secondly, 9 naïve CD-1 mice were administered Compound 1 (AT-281) by oral gavage at 1000 mg/kg for the first dose, and then 4 h later, they were given twice daily doses 12 hours apart for 3 consecutive days at 500 mg/kg. Blood samples were collected, 3 animals per time point, at 16 (received one 500 mg/kg dose), 40 (received three 500 mg/kg doses) and 76 h post first dose (received six 500 mg/kg doses), and PBMCs were isolated.
(§1) Pharmacokinetic measurements for FIGS. 11, 12, 13, 14, and 15 were analyzed using LC-MS/MS according to the protocol described herein. Plasma samples were prepared for MS analysis by adding internal standards and extracting with 20 volumes chilled ACN. After vortex (800 rpm for 10 min) and centrifugation (4,000 rpm, 15 min, 4° C.), the supernatants (25 μL) were diluted with an equal volume of H2O, mixed and spun again. After adding internal standards, the PBMC samples (10^6 cells) were lyzed with 300 μL MeOH/H2O (70:30, v/v) and 40 mM dibutylammonium acetate (DBAA), mixed by vortex and centrifuged (12,000 rpm, 15 min, 4° C.). Aliquots of the supernatants (35 μL) were dried under nitrogen and reconstituted in H2O, then mixed and spun again. […] A binary nonlinear gradient with mobile phases A (0.1% formic acid in water) and B (0.1% formic acid in ACN) were used to elute samples at 0.8 mL/min, with a run time of 5 min. […] A binary nonlinear gradient with mobile phases A (0.001% NHr H2O, 0.18 mM DBAA in H2O) and B (10 mM N,N-dimethyl-hexylamine, 3 mM NH4OAc in ACN/H2O (50.50, v/v)) were used to elute samples at 0.5 mL/min, with a run time of 3 min. Standards in 50% MeOH were used for calibration. […] Internal standards (ISS) as described previously (Good et al., Preclinical evaluation of AT-527, a novel guanosine nucleotide prodrug with potent, pan-genotypic activity against hepatitis C virus. PLos One 15:e02271045) were used to correct for variations in recovery.

[2] = Plasma PK after single oral dose of AT-752, rats; assay type: in vivo, SD rats; conditions: Rat, single oral AT-752 300 mg/kg
Description: Male SD rats were administered 300 mg/kg Compound 2 (AT-752). Blood samples were collected up to 24 hrs. post dose, plasma separated and analyzed for Compound 1 (AT-281), Compound 3 (AT-551), and Compound 6 (AT-273) by LC-MS/MS. Data are express as mean+/−SD (n=3-5/time point). The x-axis is time post the dose measured in hours and the y-axis is the plasma concentration of the metabolites measured in nanomoles/mL). The experimental procedure is provided in Example 14.
Male naïve SD rats (Beijing Vital River Laboratory Animals Co. Ltd., China) were administered a dose of AT-752 at 300 mg/kg in 40% PEG400, 10% solutol HS15, 50% 100 mM citrate buffer, pH 4.5 (v/v) by oral gavage. Blood samples (n=4) were collected at 1, 2, 4, 8, 12 and 24 h post-dose, plasma separated and stored at −70° C. […] For PBMCs, nine male naïve SD rats were administered a dose of Compound 2 (AT-752) (at a Compound 1 (AT-281) equivalent dose of 300 mg/kg) by oral gavage.
as §1
(§2) Data analysis of the pharmacokinetic data generated according to Example 21 and presented in FIGS. 11, 12, 13, 14, and 15 was analyzed according to the procedure described herein. Plasma concentrations of Compound 1 (AT-281), Compound 3 (AT-551) and Compound 6 (AT-273) were subjected to non-compartmental pharmacokinetic analysis using Phoenix WinNonlin software (version 6.3 or above, Pharsight, Mountain View, CA). The linear/log trapezoidal rule was applied in obtaining the PK parameters.

[3] = Pharmacokinetic study in SAD cohorts; assay type: in vivo, human; conditions: for dose proportionality of plasma exposure: dose range 250 to 1500 mg; for Urine Elimination: following single oral administration of Compound 2 at 250 to 1500 mg; for AUCInf / Cmax / T1/2 / Tmax / AUC(0-inf) / half-life: human plasma; for CL renal: plasma and urine
Description: as §1, §2

[4] = for AUCtau / Cmax / Tmax: steady-state, human plasma; for AUCtau / Cmax: mean±SD; for Tmax: median (minimum-maximum)
[5] = 1000 mg/kg loading then 500 mg/kg twice a day for 3 days, 12 h after the sixth 500 mg/kg dose
[6] = 1000 mg/kg loading then 500 mg/kg twice a day, 12 h after the first 500 mg/kg dose
[7] = single oral Compound 2 250 mg, fasting
[8] = single oral Compound 2 500 mg, fasting
[9] = single oral Compound 2 500 mg, fed
[10] = single oral Compound 2 1000 mg, South/Southeast/East Asian origin
[11] = single oral Compound 2 1000 mg, fasting
[12] = single oral Compound 2 1500 mg, fasting
[13] = both sexes, human, plasma, po, 250 mg, single oral Compound 2 250 mg, fasting
[14] = both sexes, human, plasma, po, 500 mg, single oral Compound 2 500 mg, fasting
[15] = both sexes, human, plasma, po, 500 mg, single oral Compound 2 500 mg, fed
[16] = both sexes, human, plasma, po, 1000 mg, single oral Compound 2 1000 mg, South/Southeast/East Asian origin
[17] = both sexes, human, plasma, po, 1000 mg, single oral Compound 2 1000 mg, fasting
[18] = both sexes, human, plasma, po, 1500 mg, single oral Compound 2 1500 mg, fasting

For `C[C@@]1(F)[C@H](O)[C@@H](COP(=O)(O)OP(=O)(O)OP(=O)(O)O)O[C@H]1n1cnc2c(=O)[nH]c(N)nc21` [Compound 5], the “concentration of AT-9010 in pooled PBMCs” value [1, 5] was 0.575 pmol/10^6 cells and the “concentration of AT-9010 in pooled PBMCs” value [1, 6] was 0.421 pmol/10^6 cells.

With `C[C@@]1(F)[C@H](O)[C@@H](CO)O[C@H]1n1cnc2c(=O)[nH]c(N)nc21` [Compound 6, 2′-fluoro-2′-C-methylguanosine] the AUC0-24 h ([2]; plasma) was 22.9 nmol·h/mL, the Cmax ([2]; plasma) was 1300 ± 300 nM and the Tmax ([2]; plasma) was 8.0 ± 0.0 h. For the same compound, the plasma concentration [1, 5] was 1.35 ± 0.86 nmol/mL, the plasma concentration [1, 6] was 0.67 ± 0.12 nmol/mL and the “dose proportionality of plasma exposure” value [3] was “slightly less than dose-proportional”. The “Urine Elimination” value [3] was 6.7-8.8%, the AUCInf [3, 7] was 1440 ± 280 ng·h/mL and the Cmax [3, 7] was 91 ± 19 ng/mL. For the same compound, the T1/2 [3, 7] was 19.1 ± 10.2 h, the Tmax [3, 7] was 6.0 (3.0-6.0) h and the AUCInf [3, 8] was 2390 ± 478 ng·h/mL. The Cmax [3, 8] was 135 ± 25 ng/mL, the T1/2 [3, 8] was 13.9 ± 5.9 h and the Tmax [3, 8] was 4.0 (3.0-8.0) h. The AUCInf [3, 9] was 2990 ± 558 ng·h/mL, the T1/2 [3, 9] was 17.3 ± 11.0 h and the Tmax [3, 9] was 6.0 (6.0-8.1) h. The Cmax ([3]; single oral Compound 2 500 mg, fed (high-fat/high-calorie meal)) was 175 ± 29 ng/mL, the AUCInf [3, 10] was 3830 ± 519 ng·h/mL and the T1/2 [3, 10] was 16.3 ± 3.0 h. The Tmax [3, 10] was 5.0 (3.1-6.0) h, the AUCInf [3, 11] was 4350 ± 1520 ng·h/mL and the Cmax [3, 11] was 241 ± 71 ng/mL. For the same compound, the T1/2 [3, 11] was 26.2 ± 12.2 h, the Tmax [3, 11] was 4.1 (4.0-6.3) h and the Cmax ([3]; single oral Compound 2 1000 mg, patients of South/Southeast/East Asian origin) was 240 ± 46 ng/mL. The AUCInf [3, 12] was 5460 ± 1190 ng·h/mL, the Cmax [3, 12] was 283 ± 32 ng/mL and the T1/2 [3, 12] was 21.7 ± 6.2 h. The Tmax [3, 12] was 6.0 (3.2-6.1) h, the CLR ([3]; human, single oral Compound 2 250 mg, fasting) was 15.8 ± 2.8 L/h and the CLR ([3]; human, single oral Compound 2 500 mg, fasting) was 16.8 ± 7.6 L/h. For the same compound, the CLR ([3]; human, single oral Compound 2 500 mg, fed) was 13.4 ± 3.3 L/h, the CLR ([3]; human, single oral Compound 2 1000 mg, South/Southeast/East Asian origin) was 18.7 ± 2.1 L/h and the CLR ([3]; human, single oral Compound 2 1000 mg, fasting) was 17.1 ± 6.5 L/h. The CLR ([3]; human, single oral Compound 2 1500 mg, fasting) was 19.5 ± 4.1 L/h, the “increase of plasma exposure on multiple dosing” value (shortened to “increase of plasma exposure”) ([4]; BID) was about 60% and the “increase of plasma exposure” value ([4]; QD) was “approximately 25%”. For the same compound, the “increase of plasma exposure” value ([4]; TID) was about 80%, the AUCtau ([4]; Compound 2 750 mg BID) was 2680 ± 730 ng·h/mL and the Cmax ([4]; Compound 2 750 mg BID) was 288 ± 58 ng/mL. For the same compound, the Tmax ([4]; Compound 2 750 mg BID) was 3.5 (3.0-4.0) h, the AUCtau ([4]; Compound 2 750 mg TID) was 2370 ± 743 ng·h/mL and the Cmax ([4]; Compound 2 750 mg TID) was 330 ± 98 ng/mL. For the same compound, the Tmax ([4]; Compound 2 750 mg TID) was 3.5 (3.0-6.0) h, the AUCtau ([4]; Compound 2 1000 mg QD) was 3120 ± 694 ng·h/mL and the Cmax ([4]; Compound 2 1000 mg QD) was 241 ± 56 ng/mL. The Tmax ([4]; Compound 2 1000 mg QD) was 4.0 (3.0-4.0) h.

With `CNc1nc(N)nc2c1ncn2[C@@H]1O[C@H](CO[P@](=O)(N[C@@H](C)C(=O)OC(C)C)Oc2ccccc2)[C@@H](O)[C@@]1(C)F` [Compound 1, isopropyl ((R)-(((2R,3R,4R,5R)-5-(2-amino-6-(methylamino)-9H-purin-9-yl)-4-fluoro-3-hydroxy-4-methyltetrahydrofuran-2-yl)methoxy)(phenoxy)phosphoryl)-L-alaninate] the “plasma concentration at 1 h, the earliest time point measured” value [2] was “below the limit of quantitation”, the “tolerability of multiple doses (adverse clinical signs)” value ([1]; 1000 mg/kg loading then 500 mg/kg twice a day for 3 days) was “well-tolerated” and the CL renal ([3]; both sexes, human, po, 250 mg, single oral Compound 2 250 mg, fasting) was 125 mL/min. For the same compound, the CL renal ([3]; both sexes, human, po, 500 mg, single oral Compound 2 500 mg, fasting) was 182 mL/min, the CL renal ([3]; both sexes, human, po, 500 mg, single oral Compound 2 500 mg, fed) was 110 mL/min and the CL renal ([3]; both sexes, human, po, 1000 mg, single oral Compound 2 1000 mg, South/Southeast/East Asian origin) was 162 mL/min. For the same compound, the CL renal ([3]; both sexes, human, po, 1000 mg, single oral Compound 2 1000 mg, fasting) was 190 mL/min, the CL renal ([3]; both sexes, human, po, 1500 mg, single oral Compound 2 1500 mg, fasting) was 138 mL/min and the AUC(0-inf) [3, 13] was 347 ± 64 ng·h/mL. For the same compound, the half-life [3, 13] was 30 ± 6 min, the Cmax ([3]; both sexes, human, plasma, po, 250 mg, single oral Compound 2 250 mg, fasting, read-out: Cmax) was 482 ± 131 ng/mL and the Tmax ([3]; both sexes, human, plasma, po, 250 mg, single oral Compound 2 250 mg, fasting, read-out: Tmax) was 30 min. The AUC(0-inf) [3, 14] was 1110 ± 687 ng·h/mL, the half-life [3, 14] was 30 ± 60 min and the Cmax ([3]; both sexes, human, plasma, po, 500 mg, single oral Compound 2 500 mg, fasting, read-out: Cmax) was 1230 ± 1110 ng/mL. For the same compound, the Tmax ([3]; both sexes, human, plasma, po, 500 mg, single oral Compound 2 500 mg, fasting, read-out: Tmax) was 30 min, the AUC(0-inf) [3, 15] was 980 ± 716 ng·h/mL and the half-life [3, 15] was 42 ± 18 min. It also gave a Cmax ([3]; both sexes, human, plasma, po, 500 mg, single oral Compound 2 500 mg, fed (high-fat/high-calorie meal), read-out: Cmax) of 488 ± 303 ng/mL, a Tmax ([3]; both sexes, human, plasma, po, 500 mg, single oral Compound 2 500 mg, fed, read-out: Tmax) of 120 min and an AUC(0-inf) [3, 16] of 2730 ± 944 ng·h/mL. The half-life [3, 16] was 30 ± 6 min, the Tmax ([3]; both sexes, human, plasma, po, 1000 mg, single oral Compound 2 1000 mg, South/Southeast/East Asian origin, read-out: Tmax) was 30 min and the AUC(0-inf) [3, 17] was 1920 ± 508 ng·h/mL. It also gave a half-life [3, 17] of 30 ± 6 min, a Cmax ([3]; both sexes, human, plasma, po, 1000 mg, single oral Compound 2 1000 mg, fasting, read-out: Cmax) of 3040 ± 960 ng/mL and a Tmax ([3]; both sexes, human, plasma, po, 1000 mg, single oral Compound 2 1000 mg, fasting, read-out: Tmax) of 30 min. The Cmax ([3]; both sexes, human, plasma, po, 1000 mg, single oral Compound 2 1000 mg, patients of South/Southeast/East Asian origin, read-out: Cmax) was 3670 ± 1260 ng/mL, the AUC(0-inf) [3, 18] was 4630 ± 1500 ng·h/mL and the half-life [3, 18] was 36 ± 12 min. For the same compound, the Cmax ([3]; both sexes, human, plasma, po, 1500 mg, single oral Compound 2 1500 mg, fasting, read-out: Cmax) was 5050 ± 2080 ng/mL, the Tmax ([3]; both sexes, human, plasma, po, 1500 mg, single oral Compound 2 1500 mg, fasting, read-out: Tmax) was 30 min and the “dose proportionality of plasma exposure” value [3] was “greater than dose-proportional manner”. For the same compound, the “Urine Elimination” value [3] was under 3% and the Tmax ([4]; Compound 2 750 mg TID) was 0.5 (0.5-1.0) h.
